Measurements published in patent US9745348B2 (The University of Manchester, priority 2011, dated 2017).
Where two headings read alike, the source gives them in different places. Where no end group is shown, it is not given here.

Key:
[1] = test system: fibroblasts Adult (HDFa) cells; assay: MTT viability of fibroblasts over three days; assay type: cell-based, human
Experimental: (§1) MTT assay: Cell viability and proliferation is widely assessed by the MTT assay as already described previously.
(§2) The fibroblasts cells, Neonatal (HDFn) and Adult (HDFa), were both grown until greater than 80% confluent. […] After 24 hour incubation the culture medium was replaced with fresh medium containing an appropriate amount of the peptide for investigation.
(§3) The viability of the fibroblasts, Adult (HDFa) and Neonatal (HDFn) cells in the presence of surfactants was tested by MTT assay over three days relative to control wells containing cells only.

E. coli, (EC) = assay: Bacterial growth by optical density, peptides with or without surfactants; assay type: cell-based, Escherichia coli
Experimental: Bacteria E. coli, (EC) and S. aureus, (SA) were grown in LB media at 37° C. with continuous shaking for 24 hours. The bacterial concentration was then adjusted such that the absorbance at 600 (A600) was controlled to ca 0.2 unit. The bacteria suspensions with the peptides were incubated in 96-well tissue culture plates. The total medium volume in each well was […]. […] Controls with media only and media with bacteria only were run alongside the peptide bacteria mixed suspensions. Measurements were taken at time t=0, t=20 and t=72 hours using optical density cell plate reader. The optical density (OD) is representative of the relative amount of bacterial growth within the medium.
The antibacterial activities of the designed short peptides in the presence of selected surfactants were investigated to determine if the peptides would sustain their antibacterial performance when surfactants are present. Bacteria E. coli, (EC) and S. aureus, (SA) were grown in LB media at 37° C. with continuous shaking for 24 hours. The bacterial concentrations were then adjusted such that the absorbance at 600 (A600) was controlled to ca 0.2 unit. The bacteria suspensions with the peptides were incubated in 96-well tissue culture plates. The total medium volume in each well was […]. […] Controls used were (i) media only, (ii) media with bacteria only and (iii) bacteria with media containing peptides at a particular concentration. These were run alongside the peptide+bacteria and selected surfactant mixed suspensions. Measurements were taken at time t=0, t=20 and t=72 hours using optical density cell plate reader. Surfactants were added such that the final concentration was 1% within the wells.

[2] = MTT viability of fibroblasts over three days; assay type: cell-based, human; details: human, adult fibroblasts (HDFa cells)
Experimental: as §1, §2, §3

in vitro = assay type: cell-based; details: human, neonatal fibroblasts (HDFn cells)
Experimental: as §1
The fibroblasts cells, Neonatal (HDFn) and Adult (HDFa), were both grown until greater than 80% confluent. The cells were then harvested and seeded into micro well plate at cell densities of 5000 cells/well in a volume […] of medium. After 24 hour incubation the culture medium was replaced with fresh medium containing an appropriate amount of the peptide for investigation.

In the case of cocamide ethanolamines [CMEA], the “MTT results (relative MTT reading)” value [1] is reported as 0.00.
In the case of `CCCCCCCCCCCCOS(=O)(=O)[O-].[Na+]` [SDS, Sodium dodecyl sulphate], the “MTT results (relative MTT reading)” value ([1]; HDFa, surfactant 1%, Day 1) is reported as 0.01, the “MTT results (relative MTT reading)” value ([1]; HDFa, surfactant 1%, Day 2) is reported as 0.01 and the “MTT results (relative MTT reading)” value ([1]; HDFa, surfactant 1%, Day 3) is reported as 0.01.
For `CC1(C)S[C@@H]2[C@H](NC(=O)[C@H](N)c3ccccc3)C(=O)N2[C@H]1C(=O)O` [Ampicillin, ampicillin], the “bacterial growth (optical density)” value (E. coli, (EC); T = 0 HOUR, NO SURF, 25 μM) was 0.20, the “bacterial growth (optical density)” value (E. coli, (EC); T = 0 HOUR, NO SURF, 50 μM) was 0.20 and the “bacterial growth (optical density)” value (E. coli, (EC); T = 0 HOUR, NO SURF, 100 μM) was 0.19. The “bacterial growth (optical density)” value (E. coli, (EC); T = 0 HOUR, with 1% C12TAB, 25 μM) was 0.27, the “bacterial growth (optical density)” value (E. coli, (EC); T = 0 HOUR, with 1% C12TAB, 50 μM) was 0.26 and the “bacterial growth (optical density)” value (E. coli, (EC); T = 0 HOUR, with 1% C12TAB, 100 μM) was 0.27. For the same molecule, the “bacterial growth (optical density)” value (E. coli, (EC); T = 0 HOUR, with 1% F127, 25 μM) was 0.20, the “bacterial growth (optical density)” value (E. coli, (EC); T = 0 HOUR, with 1% F127, 50 μM) was 0.20 and the “bacterial growth (optical density)” value (E. coli, (EC); T = 0 HOUR, with 1% F127, 100 μM) was 0.17. For the same molecule, the “bacterial growth (optical density)” value (E. coli, (EC); T = 0 HOUR, with 1% Mx, 25 μM) was 0.21, the “bacterial growth (optical density)” value (E. coli, (EC); T = 0 HOUR, with 1% Mx, 50 μM) was 0.20 and the “bacterial growth (optical density)” value (E. coli, (EC); T = 0 HOUR, with 1% Mx, 100 μM) was 0.20. The “bacterial growth (optical density)” value (E. coli, (EC); T = 0 HOUR, with 1% SLES, 25 μM) was 0.22, the “bacterial growth (optical density)” value (E. coli, (EC); T = 0 HOUR, with 1% SLES, 50 μM) was 0.18 and the “bacterial growth (optical density)” value (E. coli, (EC); T = 0 HOUR, with 1% SLES, 100 μM) was 0.15. The “bacterial growth (optical density)” value (E. coli, (EC); T = 0 HOUR, with 1% Tt, 25 μM) was 0.22, the “bacterial growth (optical density)” value (E. coli, (EC); T = 0 HOUR, with 1% Tt, 50 μM) was 0.15 and the “bacterial growth (optical density)” value (E. coli, (EC); T = 0 HOUR, with 1% Tt, 100 μM) was 0.14. The “bacterial growth (optical density)” value (E. coli, (EC); T = 20 HOUR, NO SURF, 25 μM) was 0.20, the “bacterial growth (optical density)” value (E. coli, (EC); T = 20 HOUR, NO SURF, 50 μM) was 0.16 and the “bacterial growth (optical density)” value (E. coli, (EC); T = 20 HOUR, NO SURF, 100 μM) was 0.16. The “bacterial growth (optical density)” value (E. coli, (EC); T = 20 HOUR, with 1% C12TAB, 25 μM) was 0.27, the “bacterial growth (optical density)” value (E. coli, (EC); T = 20 HOUR, with 1% C12TAB, 50 μM) was 0.26 and the “bacterial growth (optical density)” value (E. coli, (EC); T = 20 HOUR, with 1% C12TAB, 100 μM) was 0.26. The “bacterial growth (optical density)” value (E. coli, (EC); T = 20 HOUR, with 1% F127, 25 μM) was 0.15, the “bacterial growth (optical density)” value (E. coli, (EC); T = 20 HOUR, with 1% F127, 50 μM) was 0.13 and the “bacterial growth (optical density)” value (E. coli, (EC); T = 20 HOUR, with 1% F127, 100 μM) was 0.14. For the same molecule, the “bacterial growth (optical density)” value (E. coli, (EC); T = 20 HOUR, with 1% Mx, 25 μM) was 0.32, the “bacterial growth (optical density)” value (E. coli, (EC); T = 20 HOUR, with 1% Mx, 50 μM) was 0.28 and the “bacterial growth (optical density)” value (E. coli, (EC); T = 20 HOUR, with 1% Mx, 100 μM) was 0.25. For the same molecule, the “bacterial growth (optical density)” value (E. coli, (EC); T = 20 HOUR, with 1% SLES, 25 μM) was 0.08, the “bacterial growth (optical density)” value (E. coli, (EC); T = 20 HOUR, with 1% SLES, 50 μM) was 0.08 and the “bacterial growth (optical density)” value (E. coli, (EC); T = 20 HOUR, with 1% SLES, 100 μM) was 0.06. The “bacterial growth (optical density)” value (E. coli, (EC); T = 20 HOUR, with 1% Tt, 25 μM) was 0.09, the “bacterial growth (optical density)” value (E. coli, (EC); T = 20 HOUR, with 1% Tt, 50 μM) was 0.07 and the “bacterial growth (optical density)” value (E. coli, (EC); T = 20 HOUR, with 1% Tt, 100 μM) was 0.07.
For `CCCCCCCCCCCCOCCOCCOCCOCCOCCOCCO` [Helix C12E6, Hexaethylene glycol monododecyl ether], the “MTT results (relative MTT reading)” value ([1]; human, 1 day, 1 %) was 0.01, the “MTT results (relative MTT reading)” value ([1]; human, 2 day, 1 %) was 0.01 and the “MTT results (relative MTT reading)” value ([1]; human, 3 day, 1 %) was 0.01.
Work on GLLKKLLKKLLKKL-NH2 [GL, G(LLKK)3 L-NH2] yielded a viability at 24 h, 5 µM [2] of 91%, a viability at 24 h, 25 µM [2] of 90% and a viability at 24 h, 50 µM [2] of 87%. It also gave a viability at 24 h, 100 µM [2] of 63%, a viability at 48 h, 5 µM [2] of 90% and a viability at 48 h, 25 µM [2] of 88%. For the same molecule, the viability at 48 h, 50 µM [2] was 75%, the viability at 48 h, 100 µM [2] was 57% and the viability at 72 h, 5 µM [2] was 87%. It also gave a viability at 72 h, 25 µM [2] of 74%, a viability at 72 h, 50 µM [2] of 46% and a viability at 72 h, 100 µM [2] of 11%. It also gave a viability at 24 h, 5 µM (in vitro) of 98%, a viability at 24 h, 25 µM (in vitro) of 88% and a viability at 24 h, 50 µM (in vitro) of 85%. The viability at 24 h, 100 µM (in vitro) was 80%, the viability at 48 h, 5 µM (in vitro) was 87% and the viability at 48 h, 25 µM (in vitro) was 84%. For the same molecule, the viability at 48 h, 50 µM (in vitro) was 74%, the viability at 48 h, 100 µM (in vitro) was 65% and the viability at 72 h, 5 µM (in vitro) was 83%. It also gave a viability at 72 h, 25 µM (in vitro) of 81%, a viability at 72 h, 50 µM (in vitro) of 67% and a viability at 72 h, 100 µM (in vitro) of 35%.
